≈ marks a conversion by molar mass, not a printed value. Counter-ions that a name gives are not always drawn.
How the values were obtained:
[1] = system: BV2 (mouse microglia) cell line; assay: pHrodo-myelin phagocytosis/cell viability high content imaging assay: viability (cell count, nuclear area, nuclear intensity)
In short: (§1)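 Viability was read by high-content imaging as cell count per well and nuclear intensity per cell, in murine BV2 and human HMC3 microglial lines. Cells received a single 10 μM compound dose for 48 h, including 20 h with pHrodo-myelin. Duplicate means are expressed as % of untreated control.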

[2] = system: BV2 (mouse microglia) cell line; assay: pHrodo-myelin phagocytosis/cell viability high content imaging assay: phagocytosis signal; assay type: cell-based
In short: (§2)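 Imaging at high content captured pHrodo-myelin uptake about 22 hours after its addition, alongside a viability read-out from the same cells. Three measurements were derived, with intensity increase marking early apoptosis and decrease marking later apoptosis.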

[3] = system: HMC3 (human microglia) cell line; assay: as above; assay type: cell-based
In short: as §2

[4] = Kinetic solubility in aqueous buffer pH 7.4 by total chemiluminescent nitrogen determination (Analiza); conditions: aqueous buffer, pH 7.4, aqueous buffer, kinetic from dmso stock
[5] = system: HMC3 (human microglia) cell line; assay: pHrodo-myelin phagocytosis/cell viability high content imaging assay: viability (cell count, nuclear area, nuclear intensity)
In short: as §1

solubility kinetic [4] | SMILES | Inhibition of human microglial phagocytosis at 10 μM (<70% control) ([3]; 10 μM, HMC3) | Inhibition of human microglial phagocytosis at 10 μM (<70% control) ([3]; HMC3, 10 μM) | also measured
796 µM | COc1ccc(CCCN2CCC(COC(c3ccccc3)c3ccccc3)CC2)cc1 [UK-78282 HCl] | Y (The compound was found to inhibit phagocytosis (response threshold: <70% control) when human immortalized microglial cells were dosed at 10 μM (Y: yes)) | – | Stimulation of mouse microglial phagocytosis at 10 μM (>150% control) ([2]; 10 μM, BV2): Y (The compound was found to stimulate phagocytosis (response threshold: >150% control) when murine immortalized microglial cells were dosed at 10 μM (Y: yes))
40 µM (≈ 19.3 µg/mL) | O=S(=O)(c1ccccc1)N(CC(F)(F)F)c1ccc(C(O)(C(F)(F)F)C(F)(F)F)cc1 [T 0901317] | Y (The compound was found to inhibit phagocytosis (response threshold: <70% control) when human immortalized microglial cells were dosed at 10 μM (Y: yes)) | – | Stimulation of mouse microglial phagocytosis at 10 μM (>150% control) ([2]; 10 μM, BV2): Y (The compound was found to stimulate phagocytosis (response threshold: >150% control) when murine immortalized microglial cells were dosed at 10 μM (Y: yes))
40.8 µM (≈ 12.8 µg/mL) | O=C(CCl)c1ccccc1Nc1cccc(C(F)(F)F)c1 [TED-347] | – | Y (The compound was found to inhibit phagocytosis (response threshold: <70% control) when human immortalized microglial cells were dosed at 10 μM (Y: yes)) | Stimulation of mouse microglial phagocytosis at 10 μM (>150% control) ([2]; BV2, 10 μM): Y (The compound was found to stimulate phagocytosis (response threshold: >150% control) when murine immortalized microglial cells were dosed at 10 μM (Y: yes))
< 1.1 µM | OC(c1cc(C23CC4CC(CC(C4)C2)C3)nc2c(Cl)cc(Cl)cc12)C1CCCCN1 (stereo not shown) [NSC305787] | – | Y (The compound was found to inhibit phagocytosis (response threshold: <70% control) when human immortalized microglial cells were dosed at 10 μM (Y: yes)) | Mouse microglial cytotoxicity at 10 μM (<70% control) ([1]; BV2, 10 μM): Y (The compound was found to be cytotoxic (cell count threshold: <70% control) when murine immortalized microglial cells were dosed at 10 μM (Y: yes))
172 µM (≈ 69.9 µg/mL) | C[C@H]1Oc2cc(cnc2N)-c2c(nn(C)c2C#N)CN(C)C(=O)c2ccc(F)cc21 [Lorlatinib] | – | Y (The compound was found to inhibit phagocytosis (response threshold: <70% control) when human immortalized microglial cells were dosed at 10 μM (Y: yes)) | Stimulation of mouse microglial phagocytosis at 10 μM (>150% control) ([2]; BV2, 10 μM): Y (The compound was found to stimulate phagocytosis (response threshold: >150% control) when murine immortalized microglial cells were dosed at 10 μM (Y: yes))
155 µM (≈ 58.4 µg/mL) | O=C(O)CCCc1nc(-c2ccc(Cl)c(Cl)c2)c(-c2ccccc2)o1 [SWE101] | – | Y (The compound was found to inhibit phagocytosis (response threshold: <70% control) when human immortalized microglial cells were dosed at 10 μM (Y: yes)) | Stimulation of mouse microglial phagocytosis at 10 μM (>150% control) ([2]; BV2, 10 μM): Y (The compound was found to stimulate phagocytosis (response threshold: >150% control) when murine immortalized microglial cells were dosed at 10 μM (Y: yes))

Further lines, the compound ahead of its results:

SMILES | solubility kinetic [4] | Inhibition of human microglial phagocytosis at 10 μM (<70% control) ([3]; 10 μM, HMC3) | Inhibition of human microglial phagocytosis at 10 μM (<70% control) ([3]; HMC3, 10 μM) | also measured
O=C(/C=C/c1ccco1)Nc1ncc(Cc2ccccc2)s1 [Compound 1] | < 1.1 µM | Y (The compound was found to inhibit phagocytosis (response threshold: <70% control) when human immortalized microglial cells were dosed at 10 μM (Y: yes)) | – | Mouse microglial cytotoxicity at 10 μM (<70% control) ([1]; 10 μM, BV2): Y (The compound was found to be cytotoxic (cell count threshold: <70% control) when murine immortalized microglial cells were dosed at 10 μM (Y: yes)); Inhibition of mouse microglial phagocytosis at 10 μM (<70% control) ([2]; 10 μM, BV2): Y (The compound was found to inhibit phagocytosis (response threshold: <70% control) when murine immortalized microglial cells were dosed at 10 μM (Y: yes))
O=C(NC1CCNCC1)c1n[nH]cc1NC(=O)c1c(Cl)cccc1Cl [AT-7519] | 146 µM (≈ 55.8 µg/mL) | – | – | Mouse microglial cytotoxicity at 10 μM (<70% control) ([1]; BV2, 10 μM): Y (The compound was found to be cytotoxic (cell count threshold: <70% control) when murine immortalized microglial cells were dosed at 10 μM (Y: yes)); Inhibition of mouse microglial phagocytosis at 10 μM (<70% control) ([2]; BV2, 10 μM): Y (The compound was found to inhibit phagocytosis (response threshold: <70% control) when murine immortalized microglial cells were dosed at 10 μM (Y: yes)); Stimulation of human microglial phagocytosis at 10 μM (>150% control) ([3]; HMC3, 10 μM): Y (The compound was found to stimulate phagocytosis (response threshold: >150% control) when human immortalized microglial cells were dosed at 10 μM (Y: yes))
CC(Nc1nc(N2CCCC2)nc2ccccc12)c1ccccc1 (stereo not shown) [Importazole] | 42.1 µM (≈ 13.4 µg/mL) | Y (The compound was found to inhibit phagocytosis (response threshold: <70% control) when human immortalized microglial cells were dosed at 10 μM (Y: yes)) | – | Mouse microglial cytotoxicity at 10 μM (<70% control) ([1]; 10 μM, BV2): Y (The compound was found to be cytotoxic (cell count threshold: <70% control) when murine immortalized microglial cells were dosed at 10 μM (Y: yes)); Human microglial cytotoxicity at 10 μM (<70% control) ([5]; 10 μM, HMC3): Y (The compound was found to be cytotoxic (cell count threshold: <70% control) when human immortalized microglial cells were dosed at 10 μM (Y: yes))
CNc1nc(C)nc(N[C@H]2CCC[C@@H](C(=O)NCc3ccc(C#N)cc3C(F)(F)F)C2)n1 [GSK2256294A] | 148 µM (≈ 66 µg/mL) | – | Y (The compound was found to inhibit phagocytosis (response threshold: <70% control) when human immortalized microglial cells were dosed at 10 μM (Y: yes)) | –
CCCC[C@@H](C=O)NC(=O)[C@H](CC(C)C)NC(=O)OCc1ccccc1 [Calpeptin] | 170 µM (≈ 61.4 µg/mL) | – | Y (The compound was found to inhibit phagocytosis (response threshold: <70% control) when human immortalized microglial cells were dosed at 10 μM (Y: yes)) | Stimulation of mouse microglial phagocytosis at 10 μM (>150% control) ([2]; BV2, 10 μM): Y (The compound was found to stimulate phagocytosis (response threshold: >150% control) when murine immortalized microglial cells were dosed at 10 μM (Y: yes))
c1ccc(-c2nn3c(c2-c2ccnc4cc(OCCN5CCOCC5)ccc24)CCC3)nc1 [LY2109761] | 114 µM (≈ 50.6 µg/mL) | – | Y (The compound was found to inhibit phagocytosis (response threshold: <70% control) when human immortalized microglial cells were dosed at 10 μM (Y: yes)) | –
CN(C)CCCn1c(N)c(-c2nc3ccccc3[nH]2)c2nc3ccccc3nc21 [INI-43] | 5.9 µM (≈ 2.27 µg/mL) | Y (The compound was found to inhibit phagocytosis (response threshold: <70% control) when human immortalized microglial cells were dosed at 10 μM (Y: yes)) | – | –
CCN(CC)c1ccc(/C=N/NC(=O)c2ccc(O)cc2)cc1 [DY131] | 4.5 µM (≈ 1.4 µg/mL) | – | Y (The compound was found to inhibit phagocytosis (response threshold: <70% control) when human immortalized microglial cells were dosed at 10 μM (Y: yes)) | Mouse microglial cytotoxicity at 10 μM (<70% control) ([1]; BV2, 10 μM): Y (The compound was found to be cytotoxic (cell count threshold: <70% control) when murine immortalized microglial cells were dosed at 10 μM (Y: yes))
C[C@H](NC(=O)c1sccc1OCc1ccc(Cl)cc1)c1ccccc1 [AS1949490] | < 2.1 µM | Y (The compound was found to inhibit phagocytosis (response threshold: <70% control) when human immortalized microglial cells were dosed at 10 μM (Y: yes)) | – | –
C[C@@H](Oc1cc(-c2cnn(C3CCNCC3)c2)cnc1N)c1c(Cl)ccc(F)c1Cl [Crizotinib] | 160 µM (≈ 72.1 µg/mL) | – | Y (The compound was found to inhibit phagocytosis (response threshold: <70% control) when human immortalized microglial cells were dosed at 10 μM (Y: yes)) | Inhibition of mouse microglial phagocytosis at 10 μM (<70% control) ([2]; BV2, 10 μM): Y (The compound was found to inhibit phagocytosis (response threshold: <70% control) when murine immortalized microglial cells were dosed at 10 μM (Y: yes))
CCS(=O)(=O)N1CCN(c2ccc(Nc3ncc(C(N)=O)c(NC4CC4)n3)cc2)CC1 [Cerdulatinib] | 1.8 µM (≈ 0.802 µg/mL) | – | – | Mouse microglial cytotoxicity at 10 μM (<70% control) ([1]; BV2, 10 μM, cell count <70% control): Y (The compound was found to be cytotoxic (cell count threshold: <70% control) when murine immortalized microglial cells were dosed at 10 μM (Y: yes)); Human microglial cytotoxicity at 10 μM (<70% control) ([5]; HMC3, 10 μM, cell count <70% control): Y (The compound was found to be cytotoxic (cell count threshold: <70% control) when human immortalized microglial cells were dosed at 10 μM (Y: yes)); Inhibition of mouse microglial phagocytosis at 10 μM (<70% control) ([2]; BV2, 10 μM): Y (The compound was found to inhibit phagocytosis (response threshold: <70% control) when murine immortalized microglial cells were dosed at 10 μM (Y: yes))
CCn1cc(C(=O)O)c(=O)c2c(N)c(F)c(NC3CCCCC3)cc21 [AS1842856] | 6.5 µM (≈ 2.26 µg/mL) | Y (The compound was found to inhibit phagocytosis (response threshold: <70% control) when human immortalized microglial cells were dosed at 10 μM (Y: yes)) | – | Human microglial cytotoxicity at 10 μM (<70% control) ([5]; 10 μM, HMC3): Y (The compound was found to be cytotoxic (cell count threshold: <70% control) when human immortalized microglial cells were dosed at 10 μM (Y: yes))
CC(C)(C)c1cnc(CSc2cnc(NC(=O)C3CCNCC3)s2)o1 [SNS-032] | 138 µM (≈ 52.3 µg/mL) | – | – | Mouse microglial cytotoxicity at 10 μM (<70% control) ([1]; BV2, 10 μM): Y (The compound was found to be cytotoxic (cell count threshold: <70% control) when murine immortalized microglial cells were dosed at 10 μM (Y: yes)); Human microglial cytotoxicity at 10 μM (<70% control) ([5]; HMC3, 10 μM): Y (The compound was found to be cytotoxic (cell count threshold: <70% control) when human immortalized microglial cells were dosed at 10 μM (Y: yes)); Stimulation of human microglial phagocytosis at 10 μM (>150% control) ([3]; HMC3, 10 μM): Y (The compound was found to stimulate phagocytosis (response threshold: >150% control) when human immortalized microglial cells were dosed at 10 μM (Y: yes))

Reference: publication PMC9019904, “AD Informer Set: Chemical tools to facilitate Alzheimer's disease drug discovery” (Alzheimer's & Dementia : Translational Research & Clinical …, 2022)
